# pIC50: −log10 of the molar value.
# Experiments:
# Type in all cases: cell-based
# [1] = test system: HL-60; assay: MTT cell proliferation assay, HL-60; conditions: Homo sapiens; HL-60 cell line (acute promyelocytic leukemia)
# Procedure: (§1) The antiviral and antitumor activities of the compounds of the invention were evaluated by a cellular proliferation assay. The MTT [3-(4,5-dimethylthiazol-2-yl)-2,5-diphenyltetrazolium bromide] assay, first described by Mosmann (Mosmann T., “Rapid colorimetric assay for cellular growth and survival: application to proliferation and cytotoxicity assays,” J. Immunol. Methods 1983 Dec. 16; 65(1-2):55-63, and incorporated by reference in its entirety) is based on the ability of a mitochondrial dehydrogenase enzyme from viable cells to cleave the tetrazolium rings of the pale yellow MTT. The cleavage reaction form a dark blue formazan crystals which is largely impermeable to cell membranes and accumulation within healthy cells. Solubilisation of the cells by the addition of a detergent liberates and solubilizes the crystals. The number of surviving cells is directly proportional to the level of the formazan product created. The color can then be quantified using a simple colorimetric assay. The results can be read on a multiwell scanning spectrophotometer (ELISA reader).
# (§2) In Tables 1 and 2, IC50 values are presented for various cell lines in micromolar units (μm), “Gemci” is Gemcitabine, and “5-FU” is 5-fluorouracil.
# [2] = test system: Colo 829; assay: MTT cell proliferation assay, Colo 829; conditions: Homo sapiens; Colo 829 cell line (skin)
# Procedure: as §1, §2
# [3] = test system: PFSK-1; assay: MTT cell proliferation assay, PFSK-1; conditions: Homo sapiens; PFSK-1 cell line (brain)
# Procedure: as §1, §2
# [4] = test system: MOLT-4; assay: MTT cell proliferation assay, MOLT-4; conditions: Homo sapiens, MOLT-4, MOLT-4 cell line (acute lymphoblastic leukemia)
# Procedure: as §1, §2
# [5] = test system: 1A6; assay: MTT cell proliferation assay, 1A6; conditions: 1A6 cell line (urinary bladder)
# Procedure: as §1, §2
# [6] = test system: HCT 116; assay: MTT cell proliferation assay, HCT 116; conditions: Homo sapiens; HCT 116 cell line (colon)
# Procedure: as §1, §2
# [7] = test system: MCF7; assay: MTT cell proliferation assay, MCF7; conditions: Homo sapiens; MCF7 cell line (mammary gland; breast)
# Procedure: as §1, §2
# [8] = test system: NCI H2052; assay: MTT cell proliferation assay, NCI H2052; conditions: Homo sapiens; NCI H2052 cell line (tumor stage 4 derived from pleural effusion)
# Procedure: as §1, §2
# [9] = test system: 786-O; assay: MTT cell proliferation assay, 786-O; conditions: Homo sapiens, 786-0; 786-O cell line (kidney)
# Procedure: as §1, §2
# [10] = test system: HCC1143; assay: MTT cell proliferation assay, HCC1143; conditions: Homo sapiens; HCC1143 cell line (mammary gland; breast)
# Procedure: as §1, §2
# [11] = test system: OVCAR3; assay: MTT cell proliferation assay, OVCAR3; conditions: Homo sapiens, OVCAR-3; OVCAR3 cell line (ovary)
# Procedure: as §1, §2
# [12] = test system: BxPC-3; assay: MTT cell proliferation assay, BxPC-3; conditions: Homo sapiens; BxPC-3 cell line (pancreas)
# Procedure: as §1, §2
# [13] = test system: NCI H1395; assay: MTT cell proliferation assay, NCI H1395; conditions: Homo sapiens, NCI-H1395, NCI H1395 cell line (lung)
# Procedure: as §1, §2
# [14] = test system: DLD-1; assay: MTT cell proliferation assay, DLD-1; conditions: Homo sapiens; DLD-1 cell line (colon)
# Procedure: as §1, §2
# [15] = test system: 22Rv1; assay: MTT cell proliferation assay, 22Rv1; conditions: Homo sapiens; 22Rv1 cell line (prostate)
# Procedure: as §1, §2
# [16] = test system: ZR-75-1; assay: MTT cell proliferation assay, ZR-75-1; conditions: Homo sapiens; ZR-75-1 cell line (mammary gland; breast)
# Procedure: as §1, §2
Compound,pIC50 [1],pIC50 [2],pIC50 [3],pIC50 [4],pIC50 [5],pIC50 [6],pIC50 [7],pIC50 [8],pIC50 [9],pIC50 [10],pIC50 [11],pIC50 [12],pIC50 [13],pIC50 [14],pIC50 [15],pIC50 [16]
"CC1(CO)C(O)[C@H](n2cnc3c(=O)nc(N)[nH]c(=O)c32)O[C@@H]1CO (stereo in doubt) [LCB-1097, 6-amino-1-((2R,3R,4S,5S)-3-hydroxy-4,5-bis(hydroxymethyl)-4-methyltetrahydrofuran-2-yl)imidazo[4,5-e][1,3]diazepine-4,8(1H,5H)-dione]",< 3.30,< 3.30,< 3.30,< 3.30,< 3.30,< 3.30,< 3.30,< 3.30,< 3.30,< 3.30,< 3.30,< 3.30,< 3.30,< 3.30,< 3.30,3.68
"CC1(CO)C(O)C(n2cnc3c(N)nc(Cl)nc32)O[C@@H]1CO (stereo in doubt) [LCB-1091, ((2S,3R,4R,5R)-5-(6-amino-2-chloro-9H-purin-9-yl)-4-hydroxy-3-methyltetrahydrofuran-2,3-diyl)dimethanol]",< 3.30,< 3.30,< 3.30,< 3.30,< 3.30,< 3.30,< 3.30,< 3.30,< 3.30,< 3.30,< 3.30,< 3.30,< 3.30,< 3.30,< 3.30,< 3.30
